± gives the expanded uncertainty stated by the source. Each block holds one molecule with its values, some of them ahead of it.
Conditions: Pendant drop shape

SMILES: CCCC[n+]1ccn(C)c1.O=S(=O)([N-]S(=O)(=O)C(F)(F)F)C(F)(F)F
surface tension liquid-gas (298.2 K): 33.35 ± 0.38 mN/m
surface tension liquid-gas (308.2 K): 32.85 ± 0.37 mN/m
surface tension liquid-gas (318.2 K): 32.25 ± 0.37 mN/m
surface tension liquid-gas (328.2 K): 31.69 ± 0.36 mN/m
surface tension liquid-gas (338.2 K): 31.14 ± 0.35 mN/m
surface tension liquid-gas (343.2 K): 30.76 ± 0.35 mN/m

surface tension liquid-gas (298.1 K): 43.81 ± 0.47 mN/m
surface tension liquid-gas (303.2 K): 43.44 ± 0.47 mN/m
surface tension liquid-gas (313.1 K): 42.72 ± 0.46 mN/m
surface tension liquid-gas (323.1 K): 42.19 ± 0.46 mN/m
surface tension liquid-gas (333.1 K): 41.61 ± 0.45 mN/m
surface tension liquid-gas (343.7 K): 41.07 ± 0.45 mN/m
SMILES: CCCCn1cc[n+](C)c1.F[P-](F)(F)(F)(F)F [1-butyl-3-methylimidazolium hexafluorophosphate]

surface tension liquid-gas (298 K): 45.44 ± 0.49 mN/m
surface tension liquid-gas (307.9 K): 44.57 ± 0.48 mN/m
surface tension liquid-gas (317.9 K): 43.91 ± 0.47 mN/m
surface tension liquid-gas (328.4 K): 43.15 ± 0.47 mN/m
surface tension liquid-gas (338.4 K): 42.49 ± 0.46 mN/m
surface tension liquid-gas (343.1 K): 42.17 ± 0.46 mN/m
SMILES: CCCCn1cc[n+](C)c1.F[B-](F)(F)F [1-butyl-3-methylimidazolium tetrafluoroborate]

surface tension liquid-gas (298.1 K): 35.86 ± 0.4 mN/m
surface tension liquid-gas (307.9 K): 35.29 ± 0.4 mN/m
surface tension liquid-gas (318 K): 34.95 ± 0.4 mN/m
surface tension liquid-gas (328.1 K): 34.64 ± 0.41 mN/m
surface tension liquid-gas (338.3 K): 34.3 ± 0.38 mN/m
SMILES: CCCCn1cc[n+](C)c1.O=S(=O)([O-])C(F)(F)F [1-butyl-3-methylimidazolium trifluoromethanesulfonate]

SMILES: CCn1cc[n+](C)c1.Cc1ccc(S(=O)(=O)[O-])cc1 [1-ethyl-3-methylimidazolium 4-methylbenzenesulfonate]
surface tension liquid-gas (308.1 K): 45.2 ± 0.6 mN/m
surface tension liquid-gas (318 K): 44.2 ± 0.6 mN/m
surface tension liquid-gas (328.5 K): 43.6 ± 0.6 mN/m
surface tension liquid-gas (338.3 K): 43 ± 0.6 mN/m
surface tension liquid-gas (343.2 K): 42.7 ± 0.6 mN/m

SMILES: CC(=O)[O-].CCn1cc[n+](C)c1 [1-ethyl-3-methylimidazolium acetate]
surface tension liquid-gas (298.1 K): 47.06 ± 0.5 mN/m
surface tension liquid-gas (308.2 K): 46.53 ± 0.5 mN/m
surface tension liquid-gas (318.2 K): 45.89 ± 0.49 mN/m
surface tension liquid-gas (328.2 K): 45.33 ± 0.48 mN/m
surface tension liquid-gas (338.3 K): 44.74 ± 0.48 mN/m

SMILES: CCn1cc[n+](C)c1.N#CN=C=[N-] [1-ethyl-3-methylimidazolium dicyanamide]
surface tension liquid-gas (298.3 K): 57.5 ± 0.8 mN/m
surface tension liquid-gas (308.2 K): 56.6 ± 1 mN/m
surface tension liquid-gas (318.3 K): 56.4 ± 0.8 mN/m
surface tension liquid-gas (328.2 K): 56 ± 0.7 mN/m
surface tension liquid-gas (338.5 K): 55 ± 0.8 mN/m
surface tension liquid-gas (343.4 K): 54.9 ± 0.8 mN/m

SMILES: CCn1cc[n+](C)c1.COP(=O)([O-])OC [1-ethyl-3-methylimidazolium dimethylphosphate]
surface tension liquid-gas (308.2 K): 45.3 ± 0.9 mN/m
surface tension liquid-gas (318 K): 44.7 ± 0.8 mN/m
surface tension liquid-gas (328.7 K): 44.4 ± 0.7 mN/m
surface tension liquid-gas (338.6 K): 43.8 ± 0.7 mN/m
surface tension liquid-gas (343.5 K): 43.3 ± 0.6 mN/m

SMILES: CCn1cc[n+](C)c1.CS(=O)(=O)[O-] [1-ethyl-3-methylimidazolium methanesulfonate]
surface tension liquid-gas (298.5 K): 50.9 ± 0.8 mN/m
surface tension liquid-gas (308 K): 50.3 ± 0.8 mN/m
surface tension liquid-gas (317.9 K): 49.7 ± 0.8 mN/m
surface tension liquid-gas (328.1 K): 49.1 ± 0.8 mN/m
surface tension liquid-gas (338.1 K): 48.1 ± 0.6 mN/m
surface tension liquid-gas (342.7 K): 47.7 ± 0.6 mN/m

SMILES: CCn1cc[n+](C)c1.CO[PH](=O)[O-] [1-ethyl-3-methylimidazolium methyl phosphonate]
surface tension liquid-gas (298.2 K): 49 ± 0.6 mN/m
surface tension liquid-gas (308.4 K): 48.3 ± 0.6 mN/m
surface tension liquid-gas (318 K): 47.9 ± 0.8 mN/m
surface tension liquid-gas (328.6 K): 47.2 ± 0.6 mN/m
surface tension liquid-gas (338.5 K): 46.7 ± 0.6 mN/m
surface tension liquid-gas (343.1 K): 46.3 ± 0.5 mN/m

SMILES: CCn1cc[n+](C)c1.N#C[S-] [1-ethyl-3-methylimidazolium thiocyanate]
surface tension liquid-gas (298.2 K): 53.3 ± 1 mN/m
surface tension liquid-gas (308.2 K): 52.3 ± 1 mN/m
surface tension liquid-gas (318.2 K): 51.8 ± 0.9 mN/m
surface tension liquid-gas (328.2 K): 50.5 ± 0.8 mN/m
surface tension liquid-gas (338.3 K): 49.8 ± 1.1 mN/m
surface tension liquid-gas (343.2 K): 49.4 ± 0.8 mN/m

SMILES: CCn1cc[n+](C)c1.O=S(=O)([O-])C(F)(F)F [1-ethyl-3-methylimidazolium trifluoromethanesulfonate]
surface tension liquid-gas (298.2 K): 41.3 ± 0.5 mN/m
surface tension liquid-gas (308.1 K): 41 ± 0.45 mN/m
surface tension liquid-gas (318.1 K): 40.48 ± 0.44 mN/m
surface tension liquid-gas (328.4 K): 39.9 ± 0.7 mN/m
surface tension liquid-gas (338.3 K): 39.5 ± 0.7 mN/m
surface tension liquid-gas (344.9 K): 39.3 ± 0.43 mN/m

From the NIST ThermoML archive (doi:10.1016/j.jct.2012.03.008)
